The target in one assay is T1, VEGFR2 (Homo sapiens, UniProt P35968).
T1 construct: purchased Life technology
Briefly: Z'-LYTE Detection Kinase Assay, VEGFR2 enzyme reaction. Format: biochemical. The source says:
(§1) It is to evaluate the inhibitory effect of the compound on three kinases VEGFR2, FGFR1, PDGFRB by detecting the enzyme activity in accordance with Z′-LYTE™ Detection Kinase Assay and using the ICso value of the compound as the index.
(§2) Recombinant human VEGFR2 and FGFR1 proteins are purchased from Life technology, and PDGFRB proteinase is purchased from Millipore.
(§3) Z-LYTE™ Kit Tyr1 and Tyr4 are purchased from Life technology.
(§4) Read with Multimode Microplate Reader Envision (PerkinElmer).
(§5) The compound to be test was subject to a 3-fold concentration gradient dilution to 11 final concentrations ranging from 10 μM to 0.17 nM 11 with two duplicate wells per concentration. The concentration of DMSO was 1% in the test reaction.
3 nM VEGFR2 protein kinase, 2 μM Tyr1 peptide, 100 μM ATP, 50 mM HEPES (pH 7.5), 10 mM MgCl2, 1 mM EGTA, 0.01% BRIJ-35. The test plate is Black Proxiplate 384-Plus plate (PerkinElmer). The reaction runs at room temperature for 60 minutes, and the reaction system is 10 μL.
(§6) 5 μL of DV reagent B (1:128) was added to the kinase reaction mixture to stopped the reaction. The reaction mixture was incubated at 23° C. for 60 minutes, and read by Envision.
(§7) The data were converted to the phosphorylation rate and the inhibition rate. The parameter curve was fitted (Model 205 in XLFIT5, iDBS) to obtain the ICso data of the compound.

The target in the next assay is T2, FGFR1 (Homo sapiens, UniProt P11362).
T2 construct: purchased Life technology
Briefly: Z'-LYTE Detection Kinase Assay, FGFR1 enzyme reaction. Format: biochemical.
Description: as §1, §2, §3, §4, §5
1 nM FGFR1 protein kinase, 2 μM Tyr4 peptide, 25 μM ATP, 50 mM HEPES (pH 7.5), 10 mM MgCl2, 1 mM EGTA, 0.01% BRIJ-35, 2 mM MnCl2, 1 mM DTT. The test plate is Black Proxiplate 384-Plus plate (PerkinElmer). The reaction runs at room temperature for 60 minutes, and the reaction system is 10 μL.
as §6, §7

In the next assay the target is T3, PDGFRB (Homo sapiens, UniProt P09619).
T3 construct: purchased Millipore
The assay is described as follows: Z'-LYTE Detection Kinase Assay, PDGFRB enzyme reaction. It counts as biochemical.
Description: as §1, §2, §3, §4, §5
40 nM PDGFRB protein kinase, 2 μM Tyr4 peptide, 100 μM ATP, 50 mM HEPES (pH 7.5), 10 mM MgCl2, 1 mM EGTA, 0.01% BRIJ-35, 2 mM MnCl2, 1 mM DTT. The test plate is Black Proxiplate 384-Plus plate (PerkinElmer). The reaction runs at room temperature for 60 minutes, and the reaction system is […].
as §6, §7

The next assay deals with HUVEC. The assay is described as follows: CellTiter-Glo Luminescent Cell Viability Assay on HUVEC stimulated with hVEGF-165. It counts as cell-based. To be noted: Homo sapiens, hVEGF-165 20 ng/ml, 72 hr. The method, then:
It is to detect the intracellular ATP change by CellTiter-Glo® Luminescent Cell Viability Assay, and evaluate the inhibitory effect of the compound on in vitro cell HUVEC with ICso value of the compound as the index.
HUVEC cell lines (ATCC), EGM-2 BulletKit (Lonza), hVEGF-165 (Cell Signaling), pancreatin (Invitrogen), DPBS (Hyclone), 384-well cell plate (Greiner), 384-well compound plate (Greiner), CO2 incubator (Thermo), centrifuger (Eppendorf), Vi-cell Cell Count (Beckman Coulter), Bravo Automated Liquid Handing Platform (Agilent), Envision (Perkin Elmer)
Test Method • A. Cells recovery and growth. • B. Cell planking: HUVEC cells were re-suspended with a fasted media (containing only 2% FBS and 0.1% GA-1000), and diluted to a concentration of 20,000/mL. The diluted cells were added into 384-well plate (Greiner) with 50 μL/well. The cell plate was placed in an incubator containing 5% CO2 at 37° C. overnight. • C. Compound Addition: The compound to be tested was subject to a 4-fold gradient dilution to 10 samples having a final concentration ranging from 10 μM to 0.038 nM with two duplicate wells per concentration. […] The mixture was incubated at room temperature for 10-30 minutes, and read with Envision. […]
In general terms: ATP-based viability assays read luminescence as a measure of living cells.

The mark [1] stands for this setting: 100 μM ATP, 60 minutes, room temperature.

Usually IC50 stands for the concentration needed to halve the response being measured. Low readings indicate greater potency in that assay, high ones weaker potency in that assay.

T1 sequence (P35968 20-1356): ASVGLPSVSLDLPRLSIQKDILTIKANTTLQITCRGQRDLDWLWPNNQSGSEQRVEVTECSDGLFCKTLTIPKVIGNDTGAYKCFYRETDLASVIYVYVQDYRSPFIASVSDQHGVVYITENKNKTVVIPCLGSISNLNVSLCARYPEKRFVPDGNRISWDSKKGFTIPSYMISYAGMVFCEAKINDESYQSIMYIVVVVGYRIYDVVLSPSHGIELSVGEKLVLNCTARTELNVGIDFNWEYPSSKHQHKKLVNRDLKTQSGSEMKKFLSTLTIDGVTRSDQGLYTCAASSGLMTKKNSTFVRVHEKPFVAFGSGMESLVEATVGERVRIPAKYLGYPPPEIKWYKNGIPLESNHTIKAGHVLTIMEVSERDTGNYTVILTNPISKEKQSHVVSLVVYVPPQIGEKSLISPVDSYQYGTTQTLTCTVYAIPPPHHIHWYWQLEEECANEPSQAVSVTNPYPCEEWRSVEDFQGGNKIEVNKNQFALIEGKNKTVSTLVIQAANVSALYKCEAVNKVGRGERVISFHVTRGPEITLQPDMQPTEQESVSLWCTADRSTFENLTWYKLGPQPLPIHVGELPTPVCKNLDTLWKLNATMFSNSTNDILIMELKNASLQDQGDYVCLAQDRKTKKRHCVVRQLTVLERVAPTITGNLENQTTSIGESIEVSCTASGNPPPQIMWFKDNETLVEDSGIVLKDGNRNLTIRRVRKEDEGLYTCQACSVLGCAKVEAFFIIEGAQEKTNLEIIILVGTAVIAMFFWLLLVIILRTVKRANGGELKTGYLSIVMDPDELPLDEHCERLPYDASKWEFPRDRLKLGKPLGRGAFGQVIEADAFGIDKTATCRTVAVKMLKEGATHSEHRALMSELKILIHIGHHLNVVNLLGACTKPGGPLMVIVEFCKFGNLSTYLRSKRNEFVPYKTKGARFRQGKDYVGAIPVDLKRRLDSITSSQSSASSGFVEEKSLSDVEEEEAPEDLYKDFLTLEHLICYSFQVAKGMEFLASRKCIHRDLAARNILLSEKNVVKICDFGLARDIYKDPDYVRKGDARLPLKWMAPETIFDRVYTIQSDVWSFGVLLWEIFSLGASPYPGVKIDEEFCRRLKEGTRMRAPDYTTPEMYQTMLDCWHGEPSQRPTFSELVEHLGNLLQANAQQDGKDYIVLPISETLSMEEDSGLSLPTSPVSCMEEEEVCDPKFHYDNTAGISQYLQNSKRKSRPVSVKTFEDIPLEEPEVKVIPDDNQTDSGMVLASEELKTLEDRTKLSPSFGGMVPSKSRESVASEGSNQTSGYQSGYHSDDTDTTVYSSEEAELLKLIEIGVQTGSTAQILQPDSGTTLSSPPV
T3 sequence (P09619 33-1106): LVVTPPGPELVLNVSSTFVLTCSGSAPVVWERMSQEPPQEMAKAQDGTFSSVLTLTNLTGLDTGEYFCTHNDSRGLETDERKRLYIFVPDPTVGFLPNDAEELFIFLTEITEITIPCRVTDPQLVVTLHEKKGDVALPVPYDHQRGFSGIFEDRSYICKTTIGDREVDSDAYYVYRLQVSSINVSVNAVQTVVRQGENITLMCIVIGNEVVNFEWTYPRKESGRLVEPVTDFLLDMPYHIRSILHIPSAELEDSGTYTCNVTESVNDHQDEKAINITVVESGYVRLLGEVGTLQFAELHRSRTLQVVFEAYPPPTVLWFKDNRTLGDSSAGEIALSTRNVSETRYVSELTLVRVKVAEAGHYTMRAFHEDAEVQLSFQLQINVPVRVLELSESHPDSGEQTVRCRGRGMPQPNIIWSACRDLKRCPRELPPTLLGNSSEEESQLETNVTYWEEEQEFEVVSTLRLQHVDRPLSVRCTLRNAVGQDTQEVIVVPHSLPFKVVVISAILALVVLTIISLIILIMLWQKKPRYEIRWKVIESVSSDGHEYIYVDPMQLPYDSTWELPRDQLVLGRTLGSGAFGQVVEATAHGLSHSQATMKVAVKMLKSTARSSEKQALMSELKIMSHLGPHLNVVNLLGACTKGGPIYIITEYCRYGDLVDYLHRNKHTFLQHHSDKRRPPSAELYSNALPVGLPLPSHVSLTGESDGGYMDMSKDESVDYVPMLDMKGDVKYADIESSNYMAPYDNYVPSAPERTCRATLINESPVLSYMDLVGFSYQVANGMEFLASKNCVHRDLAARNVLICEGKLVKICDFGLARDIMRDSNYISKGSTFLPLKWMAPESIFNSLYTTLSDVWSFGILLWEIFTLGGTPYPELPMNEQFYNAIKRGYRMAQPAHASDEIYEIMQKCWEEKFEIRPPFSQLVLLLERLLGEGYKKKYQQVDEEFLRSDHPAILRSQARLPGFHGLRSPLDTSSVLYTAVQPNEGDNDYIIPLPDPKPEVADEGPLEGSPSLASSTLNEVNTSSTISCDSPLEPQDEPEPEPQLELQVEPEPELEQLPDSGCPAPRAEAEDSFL
T2 sequence (P11362 22-822): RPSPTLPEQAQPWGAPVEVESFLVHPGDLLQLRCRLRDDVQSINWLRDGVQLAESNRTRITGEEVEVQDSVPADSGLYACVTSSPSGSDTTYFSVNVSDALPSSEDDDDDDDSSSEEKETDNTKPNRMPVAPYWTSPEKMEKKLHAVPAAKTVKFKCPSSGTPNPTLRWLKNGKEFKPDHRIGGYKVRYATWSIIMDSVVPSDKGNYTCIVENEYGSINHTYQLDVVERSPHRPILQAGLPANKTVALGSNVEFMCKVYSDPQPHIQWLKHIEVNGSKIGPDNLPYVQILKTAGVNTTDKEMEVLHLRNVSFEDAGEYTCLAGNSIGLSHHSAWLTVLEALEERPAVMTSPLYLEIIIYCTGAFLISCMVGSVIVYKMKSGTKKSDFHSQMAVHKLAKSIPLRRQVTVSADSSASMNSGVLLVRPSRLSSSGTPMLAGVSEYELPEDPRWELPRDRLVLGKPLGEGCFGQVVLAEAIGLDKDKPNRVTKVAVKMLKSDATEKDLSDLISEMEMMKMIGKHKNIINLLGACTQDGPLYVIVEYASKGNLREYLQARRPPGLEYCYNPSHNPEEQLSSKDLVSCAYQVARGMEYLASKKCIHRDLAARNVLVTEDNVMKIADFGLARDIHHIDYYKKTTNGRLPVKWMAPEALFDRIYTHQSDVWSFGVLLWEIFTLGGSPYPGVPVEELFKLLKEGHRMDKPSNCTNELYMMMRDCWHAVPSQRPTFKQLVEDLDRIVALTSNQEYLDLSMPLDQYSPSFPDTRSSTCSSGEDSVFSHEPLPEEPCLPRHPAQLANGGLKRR

For the molecule `COc1cc2nccc(Oc3ccc(NC(=S)NC4CC4)c(Cl)c3F)c2cc1C(N)=O` [Compound 1], the “Inhibitory activity on VEGFR2 in vitro, conclusion in words” value on VEGFR2 is “superior inhibitory activity”. Besides, the IC50 against VEGFR2 (setting [1]) is less than 50 nM; against FGFR1 (25 μM ATP, 60 minutes, room temperature), 50 to 200 nM; against PDGFRB (setting [1]), less than 50 nM; in the assay with HUVEC, less than 100 nM. Moreover, the “Inhibitory activity on FGFR1 in vitro, conclusion in words” value at FGFR1 is “superior inhibitory activity”. In addition, the “Inhibitory activity on PDGFRB in vitro, conclusion in words” value on PDGFRB was “superior inhibitory activity”.

(Values after patent US10766862B2, “Crystal form and salt form of and preparation method for tyrosine kinase inhibitor” (GUANGDONG RAYNOVENT BIOTECH CO., LTD., priority 2016, dated 2020).)
